Reference: patent US10517954B2, “Pegylated carfilzomib compounds” (AMGEN INC., priority 2016, dated 2019)
Values belong to the molecule of their own block, whether it stands above or below them.

Assays:
[1] = system: cellular proteasome chymotrypsin-like (CT-L) in MOLT-4 human acute lymphoblastic leukemia T lymphoblasts; test: Proteosome inhibition in cells (AMC-LLVY fluorescent assay, FIGS. 9-14); format: cell-based; settings: MOLT-4 cells, 1 hour incubation; read-out: cellular proteasome chymotrypsin-like (CT-L) IC50 inhibitory potency
Procedure: MOLT-4 human acute lymphoblastic leukemia T lymphoblasts were grown for at least 6 passages in growth media (RPMI-1640 basal media supplemented with 10% FBS and 1×L-glutamine). […] Serial dilutions were performed in DMSO to produce concentrations covering 7 logs, and then each serial dilution was further diluted 40× in growth media. Dilutions were then added in equal volume to wells containing cells, further diluting compound concentrations by two-fold. Cells were incubated at 37° C. (5% CO2) for 1 hour, then spun at 1500 rpm for 5 mins at RT. Media was removed and the cells were washed with PBS 3 times. After the last wash, supernatant was removed and the cell pellets were frozen on dry ice. Cell pellets were thawed and then lysed by resuspending in 50 uL lysis buffer on ice (20 mM Tris-HCl, 5 mM EDTA, pH 8). The preparation was centrifuged at 1500 rpm for 5 mins and then utilized directly for AMC-LLVY fluorescent assay.

[2] = system: HT-29 Human Colorectal Adenocarcinoma Xenograph Model; test: Efficacy study in HT-29 xenograph model (FIG. 5, FIG. 6, Table 6); format: in vivo, SCID Beige Mice; settings: for % Change compared to Vehicle: Day 40; for Day 0 Tumor Vol: baseline; for # of animals at day 40: n = 10 at start
Source text: (§1) Female Beige Severe Combined Immune Deficiency (SCID) mice (60 plus spares) were purchased from Harlan Laboratories (Livermore, Calif.) as 6- to 7-week-old mice. Following arrival, animals were weighed using an electronic balance (Ohaus SCOUT® PRO, Parsippany, N.J.), given a clinical examination to ensure that the animals were in good condition, and housed 5 per cage (prior to dosing). The animals were maintained in a HEPA-filtered environment in a Micro-VENT full-ventilation rodent housing system (Allentown Caging Equipment Co., Allentown, N.J.) providing at least 10 room air changes per hour Animal room controls were set to maintain temperature and relative humidity at 20° C.±1° C. and 50%±20%, respectively. Housing rooms were on a 12:12 light/dark cycle. Cages were autoclaved, and animals were bedded on SaniChip irradiated bedding 7990.BG (Harlan Teklad; Hayward, Calif.). Water was autoclaved and supplied ad libitum to each cage via water bottles. Irradiated 2018 Teklad Global 16% Protein Rodent Diet ((Harlan Teklad) supplied ad libitum to each cage.
Example 13 was prepared as generally described above. The carfilzomib comparator compound was prepared as CFZ-captisol (at 1 mg/mL). A powder sample of example 13 was diluted to 30 mg/ml (Group 3) or 50 mg/ml (Group 3 beginning fourth dose) or 40 mg/ml (Group 4) in 10% ETOH/saline. Vehicle and CFZ-captisol were stored at 4° C. throughout the study. During the study, example 13 was inspected regularly for potential changes in the quality of the suspension; none were observed
NCI-HT29 (HT-29; ATCC® HTB-38™), a human colorectal adenocarcinoma cancer cell (CA) line, was purchased from ATCC (Manassas, Va.). Following receipt at the MGI, cells were grown in-house for 7 passages in RPMI 1640 and 10% fetal bovine serum, then used to generate frozen stocks. The cells were recovered from the frozen stocks and cultured as above. Following growth, the cells were spun down and resuspended at a concentration of 5E07 cells/mL in serum-free medium without additives, then combined 1:1 with Matrigel™ (Trevigen, Gaithersburg, Md.). At the time of implant, cells corresponded to MGI Passage 7 (MGP7).
At approximately 3 weeks prior to the projected staging day, mice were implanted by subcutaneous (SC) injection into the lower left abdominal flank with 200 μL (5.0E06 cells) per mouse of the freshly prepared HT29:Matrigel mixture. All procedures were carried out in HEPA-filtered laminar-flow hoods.
When the tumors reached a mean volume of approximately 200 mm^3 per mouse, forty animals with established tumors and moderate body weights were randomized into 4 treatment groups (n=10 mice per group). Starting on Day 0, animals were administered by once-weekly (qw) injection with vehicle (Group 1) or twice-weekly D1D2 injection (i.e., two adjacent days each week) with CFZ-captisol at 5 mpk (Group 2) or OP-59381 at 150 mg/kg (Groups 3). Starting with the fourth dose (i.e., after three week), dosing of Group 3 animals was increased to 250 mg/kg. Group 4 was dosed once-weekly (qw) injection with or OP-59381 (Example 13) at 200 mg/kg. All of these doses were administered as intravenous (IV) injections at dose volumes of 5 mL/kg. After the IV dosing for the seventh week (i.e., after Day 42 for Groups 1-4), the tumor treatment efficacy appeared to slow or cease altogether.

[3] = system: HT-29 Colorectal Adenocarcinoma Xenograph Model; test: Second efficacy study in HT-29 xenograph model (FIG. 7); format: in vivo, SCID Beige Mice
Source text: as §1
Example 13 was formulated as described herein to the desired concentration. Carfilzomib was provided as CFZ-captisol (at 1 mg/mL). a powder sample of Example 13 was diluted to 30 mg/ml (Group 3) or 50 mg/ml (Group 4) in 10% ETOH/saline. Vehicle and CFZ-captisol were stored at 4° C. throughout the study. […]

[4] = mouse, in vivo, iv, 5 mg/kg
Procedure: The PEG carfilzomib compounds were administered to mice (Balb/c, male, n=9 per dose group) as an intravenous (i.v.) bolus at 5 mg/kg (equivalent to carfilzomib, dose volume 1 mL/kg). Blood samples from each mouse were collected at the indicated time points (0.5, 1, 2, 4, 6, 12, 16 and 24 hours post-dose) and 25 μL of the plasma samples were extracted by protein precipitation with 125 μL of acetonitrile containing D10-CFZ as an internal standard and then centrifuged. Carfilzomib concentrations were measured in the supernatant by LC-MS/MS using multiple reaction monitoring in the positive electrospray ionization mode. The lower limit of quantitation of the assay was 0.500 ng/mL.

[5] = PEG-carfilzomib mouse pK (FIG. 2); set-up: species or system mice (Balb/c); settings: in vivo, iv
Procedure: Mean plasma concentration (μM) following intravenous administration of PEG-carfilzomib conjugate to female Balb/c mice (n=3). Dosage indicated is mg/kg of PEG-carfilzomib conjugate. […] Blood samples were collected at the indicated time points and plasma carfilzomib concentrations were measured in duplicate by LC/MS-MS. […] This standard carfilzomib represents the currently approved formulation for carfilzomib for treatment of multiple myeloma.

[6] = system: Proteasome chymotrypsin-like (CT-L) activity; test: Proteasome CT-L activity in blood and tissues after i.v. dosing (FIG. 3); format: in vivo, mice (Balb/c); settings: i.v. bolus; blood, adrenal gland, heart and liver, in mice
Procedure: Carfilzomib standard was formulated in an aqueous solution of 10% (w/v)sulfobutylether-β-cyclodextrin and 10 mmol/L sodium citrate (pH 3.5) for administration (5 mg/kg). At selected time points after i.v. drug administration, tissue samples (adrenal, heart, liver and bone marrow) were collected. Whole blood was collected by cardiac puncture into tubes containing sodium heparin.
Approximately 0.4 mL of whole blood is collected using either EDTA microcentrifuged tubes. Samples are immediately placed on ice and spun at maximum speed for 2 minutes in a microcentrifuge at room temperature (RT). Cell pellets are stored on wet ice. Whole blood cell pellets are resuspended in 1 ml of phosphate buffered saline (PBS) and centrifuged at max speed at 4° C. Supernatants are removed and the pellets are washed a second time with PBS. Samples are resuspended in 2 volumes of lysis buffer (20 mM Tris, pH 8.0, 5 mM EDTA) then frozen and stored at −80° C. until analysis. […]
All samples were thawed on ice. […] These samples were then ready for assaying, or they may be frozen at −80° C. […] These samples were then ready for assaying, or they may be frozen at −80° C. […] The protein concentration for each sample was measured by Bradford assay. Proteasome chymotrypsin-like (CT-L) activity was quantitated by monitoring the release of free AMC from the fluorogenic peptide Suc-Leu-Leu-Val-Tyr-AMC (BostonBiochem).

[7] = in humans; cited from earlier work
[8] = Group 3, 150 mpk to 250 mpk (QW) IV

Molecule: 4-(4-Acetoxy-3-((1-PEG2K-1H-1,2,3-triazol-4-yl)methoxy)benzyl)-4-((4S,7S,10S,13S)-10-benzyl-7-isobutyl-15-methyl-13-((R)-2-methyloxirane-2-carbonyl)-2,5,8,11-tetraoxo-4-phenethyl-3,6,9,12-tetraazahexadecyl)morpholin-4-ium mesylate [Example 36]
IC50 [1]: ~0.0218 µM

Molecule: 4-(4-Acetoxy-3-((1-PEG3K-1H-1,2,3-triazol-4-yl)methoxy)benzyl)-4-((4S,7S,10S,13S)-10-benzyl-7-isobutyl-15-methyl-13-((R)-2-methyloxirane-2-carbonyl)-2,5,8,11-tetraoxo-4-phenethyl-3,6,9,12-tetraazahexadecyl)morpholin-4-ium mesylate [Example 35]
IC50 [1]: ~0.009 µM

Molecule: 4-((4S,7S,10S,13S)-10-Benzyl-7-isobutyl-15-methyl-13-((R)-2-methyloxirane-2-carbonyl)-2,5,8,11-tetraoxo-4-phenethyl-3,6,9,12-tetraazahexadecyl)-4-(3-((1-(PEG20K-4-Arm)-1H-1,2,3-triazol-4-yl)methoxy)-4-(pivaloyloxy)benzyl)morpholin-4-ium formate [Example 13]
tumor growth vs. vehicle control by Day 19 ([2]; 200 mpk Example 13, 5 mpk CFZ-captisol): significantly attenuated
Day 40 Tumor Vol [2, 8]: 998.5 mm^3
% Change compared to Vehicle [2, 8]: −59.6%
Day 0 Tumor Vol [2, 8]: 95.5 mm^3
# of animals at day 40 [2, 8]: 9
Day 40 Tumor Vol ([2]; Group 4, 200 mpk (QW) IV): 1443.0 mm^3
% Change compared to Vehicle ([2]; Group 4, 200 mpk (QW) IV): −41.6%
Day 0 Tumor Vol ([2]; Group 4, 200 mpk (QW) IV): 95.9 mm^3
# of animals at day 40 ([2]; Group 4, 200 mpk (QW) IV): 7
Day-41 tumor sizes, % of control ([3]; Group 3, example 13 at 150 mg/kg IV (Table 7: QD × 2 (D1D2) × 6 weeks)): 79.6%
Day-41 tumor sizes, % of control ([3]; Group 4, example 13 at 250 mg/kg IV, QW × 6 weeks): 61.8%
AUC0-24 [4]: 3.51 µg·h/mL
T1/2 [4]: 3.68 h
carfilzomib plasma concentration-time profile (FIG. 4) [4]: significantly higher plasma concentrations for that lengthy duration of time
time carfilzomib is present in / released into the plasma post administration [4]: 25 h
plasma concentration relative to control [5]: multiple log-fold over that of the control

Molecule: 4-(4-acetoxy-3-((1-(5-((2-PEG3K-ethyl)amino)-5-oxopentyl)-1H-1,2,3-triazol-4-yl)methoxy)benzyl)-4-((4S,7S,10S,13S)-10-benzyl-7-isobutyl-15-methyl-13-((R)-2-methyloxirane-2-carbonyl)-2,5,8,11-tetraoxo-4-phenethyl-3,6,9,12-tetraazahexadecyl)morpholin-4-ium mesylate [Example 37]
IC50 [1]: ~0.0228 µM

Molecule: 4-(4-acetoxy-3-((1-(5-((2-PEG2K-ethyl)amino)-5-oxopentyl)-1H-1,2,3-triazol-4-yl)methoxy)benzyl)-4-((4S,7S,10S,13S)-10-benzyl-7-isobutyl-15-methyl-13-((R)-2-methyloxirane-2-carbonyl)-2,5,8,11-tetraoxo-4-phenethyl-3,6,9,12-tetraazahexadecyl)morpholin-4-ium mesylate [Example 38]
IC50 [1]: ~0.0218 µM

Molecule: 4-(4-Acetoxy-3-((1-(PEG20K-4-Arm)-1H-1,2,3-triazol-4-yl)methoxy)benzyl)-4-((4S,7S,10S,13S)-10-benzyl-7-isobutyl-15-methyl-13-((R)-2-methyloxirane-2-carbonyl)-2,5,8,11-tetraoxo-4-phenethyl-3,6,9,12-tetraazahexadecyl)morpholin-4-ium methanesulfonate [Example 1]
CT-L activity versus standard carfilzomib [6]: comparable

IC50 [1]: ~0.0092 µM
Molecule: CC(C)C[C@H](NC(=O)[C@H](CCc1ccccc1)NC(=O)CN1CCOCC1)C(=O)N[C@@H](Cc1ccccc1)C(=O)N[C@@H](CC(C)C)C(=O)[C@@]1(C)CO1 [carfilzomib, Carfilzomib]
half-life in-vivo [7]: ≤ 1 h
